# From patent US20110312934A1, “2-ALKYL-6-CYCLOAMINO-3-(PYRIDIN-4-YL)IMIDAZO[1,2-B]-PYRIDAZINE DERIVATIVES, PREPARATION THEREOF, AND THERAPEUTIC APPLICATION THEREOF” (SANOFI-AVENTIS, priority 2008, published 2011)
# Legend:
# [1] = molecular target: T1, casein kinase 1 epsilon (CK1 epsilon) (Homo sapiens, UniProt P49674); experiment: Filter-plate assay of ATP-33P, inhibition of phosphorylation of casein by CK1 epsilon; assay type: biochemical; details: ATP-33P filtration, cold ATP 10 μM final, 2 hours at ambient temperature, read-out: CK1 epsilon Cl50
# T1 construct: Invitrogen Corporation (alternative)
# Procedure: The capacity of the compounds of the invention to inhibit the phosphorylation of casein by casein kinase 1 epsilon and delta may be evaluated according to the procedure described in US 2005/0131012.
# Filter-Plate Assay of ATP-^33P for the Screening of CK1 Epsilon Inhibitors:
# The effect of the compounds on inhibition of the phosphorylation of casein by the enzyme casein kinase 1 epsilon (CK1 epsilon) is measured, using a casein assay with filtration of ATP-^33P in vitro.
# Casein kinase 1 epsilon (0.58 mg/ml) is obtained via fermentation and purification processes performed according to methods that are well known to those skilled in the art, or may also be obtained from Invitrogen Corporation™ (human CK1 epsilon).
# The compounds are tested at five different concentrations so as to generate IC50 values, i.e. the concentration at which a compound is capable of inhibiting the enzymatic activity by 50%, or alternatively the percentage of inhibition at a concentration of 10 micromolar.
# “U”-bottomed Falcon plates are prepared by placing 5 μl of solutions of the compounds according to the invention at concentrations of 10, 1, 0.1, 0.01 or 0.001 μM in different wells. The solutions of the compounds according to the invention at these various concentrations are prepared by diluting in a test buffer (50 mM Tris, pH 7.5, […], 2 mM DTT and 1 mM EGTA) a stock solution in DMSO at a concentration of 10 mM. Next, 5 μl of dephosphorylated casein are added to a final concentration of 0.2 μg/μl, 20 μl of CK1 epsilon to a final concentration of 3 ng/μl, and 20 μl of ATP-^33P to a final concentration of 0.02 μCi/μl mixed with cold ATP (10 μM final—approximately 2×10^6 CPM per well). The final total test volume per well is equal to 50 μl.
# The “U”-bottomed Falcon® test plate mentioned above is vortexed, and then incubated at ambient temperature for 2 hours. After 2 hours, the reaction is stopped by adding an ice-cold solution of 65 μl of ATP (2 mM) prepared in test buffer.
# 100 μl of the reaction mixture are then transferred from the “U”-bottomed Falcon® plate into Millipore® MAPH filter plates, preimpregnated with 25 μl of ice-cold 100% TCA. […]
# The plates are left to dry overnight at ambient temperature. […] The radiation emitted by each well is then measured for 2 minutes in a Packard® Topcount NXT scintillation counter, in which the values of CPM/well are measured.
# The percentage inhibition of the capacity of the enzyme to phosphorylate the substrate (casein) is determined for each concentration of compound tested. These inhibition data expressed as percentages are used to calculate the IC50 value for each compound compared with the controls.
# The kinetic studies determined the KM value for ATP as being 21 μM in this test system.
# [2] = system: Mper1-luc Rat-1 (P2C4) fibroblasts; experiment: Circadian cell assay (mPer1 luciferase reporter, period prolongation); assay type: cell-based; details: effective concentration that induced a 1-hour prolongation of the circadian period, interpolated from hyperbolic curve
# Procedure: Mper1-luc Rat-1 (P2C4) fibroblast cultures were prepared by dividing the cultures every 3-4 days (approximately 10-20% of confluence) on 150 cm^2 degassed polystyrene tissue culture flasks (Falcon® #35-5001) and maintained in growth medium [EMEM (Cellgro #10-0,0-CV); 10% foetal bovine serum (FBS; Gibco #16000-044); and 50 I.U./ml of penicillin-streptomycin (Cellgro #30-001-CI)] at 37° C. and under 5% CO2.
# Cells obtained from Rat-1 fibroblast cultures at 30-50% of confluence as described above were co-transfected with vectors containing the selection marker for resistance to zeocin for a stable transfection and a luciferase reporter gene controlled by the mPer-1 promoter. After 24 to 48 hours, the cultures were divided on 96-well plates and maintained in growth medium supplemented with 50-100 μg/ml of zeocin (Invitrogen® #45-0430) for 10-14 days. The zeocin-resistant stable transfectants were evaluated for the expression of the reporter by adding 100 μM luciferin (Promega® #E1603®) to the growth medium and by assaying the luciferase activity on a TopCount® scintillation counter (Packard Model #C384V00). The Rat-1 cell clones expressing both zeocin resistance and lucerifase activity controlled by mPer1 were serum-shock synchronized with 50% horse serum [HS (Gibco® #16050-122)] and the activity of the circadian reporter was evaluated. The P2C4 clone of Mper1-luc Rat-1 fibroblasts was selected to test the compound.
# Mper1-luc Rat-1 (P2C4) fibroblasts at 40-50% of confluence, obtained according to the protocol described above, were plated out onto 96-well opaque tissue culture plates (Perkin Elmer® #6005680). The cultures are maintained in growth medium supplemented with 100 μg/ml of zeocin (Invitrogen #45-0430) until they reach 100% of confluence (48-72 h). The cultures were then synchronized with 100 μl of synchronization medium [EMEM (Cellgro #10-0,0-CV); 100 I.U./ml of penicillin-streptomycin (Cellgro #30-001-C1); 50% HS (Gibco #16050-122)] for 2 hours at 37° C. and under 5% CO2. After synchronization, the cultures were rinsed with 100 μl of EMEM (Cellgro #10-010-CV) for 10 minutes at ambient temperature. After rinsing, the medium was replaced with 300 μl of CO2 independent medium [CO2I (Gibco #18045-088); 2 mM L-glutamine (Cellgro #25-005-C1); 100 U.I./ml of penicillin-streptomycin (Cellgro #30-001-C1); 100 μM luciferin (Promega #E 1603)]. […]
# The two methods produced a virtually identical period estimation on a range of circadian periods. […] The data were analysed by adjusting a hyperbolic curve to the data expressed as change of period (y-axis) as a function of the concentration of the test compound (x-axis) in the XLfit™ software and the CE Delta (t+1 h) was interpolated from this curve.
# human CK1 delta = molecular target: T2, human CK1 delta (Homo sapiens, UniProt P48730); experiment: FRET Z'Lyte kinase assay, CK1 delta; assay type: biochemical; details: peptide substrate SER/THR 11 2 μM, ATP 4 times the KM, read-out: CK1 delta Cl50
# T2 construct: purchased Invitrogen Corporation PV3665
# Description: The capacity of the compounds of the invention to inhibit the phosphorylation of casein by casein kinase 1 epsilon and delta may be evaluated using a FRET (Fluorescence Resonance Energy Transfer) fluorescence test with the aid of the Z'Lyte™ kinase assay Kit (reference PV3670; Invitrogen Corporation™) according to the manufacturer's instructions.
# The casein kinases 1 used are obtained from Invitrogen Corporation (human CK1 epsilon PV3500 and human CK1 delta PV3665).
# A peptide substrate, labelled at both ends with a fluorophore donor group (coumarin) and a fluorophore acceptor group (fluorescein), constituting a FRET system is phosphorylated in the presence of ATP by casein kinase 1 epsilon or delta in the presence of increasing concentrations of compounds of the invention.
# The mixture is treated with a site-specific protease that specifically cleaves the peptide substrate to form two fluorescent fragments having a large fluorescence emission ratio.
# The fluorescence observed is thus related to the capacity of the products of the invention to inhibit the phosphorylation of the peptide substrate by casein kinase 1 epsilon or casein kinase 1 delta. […]
# The emitted fluorescence is measured at wavelengths of 445 and 520 nm (excitation at 400 nm).
# T1 sequence (P49674 whole entry): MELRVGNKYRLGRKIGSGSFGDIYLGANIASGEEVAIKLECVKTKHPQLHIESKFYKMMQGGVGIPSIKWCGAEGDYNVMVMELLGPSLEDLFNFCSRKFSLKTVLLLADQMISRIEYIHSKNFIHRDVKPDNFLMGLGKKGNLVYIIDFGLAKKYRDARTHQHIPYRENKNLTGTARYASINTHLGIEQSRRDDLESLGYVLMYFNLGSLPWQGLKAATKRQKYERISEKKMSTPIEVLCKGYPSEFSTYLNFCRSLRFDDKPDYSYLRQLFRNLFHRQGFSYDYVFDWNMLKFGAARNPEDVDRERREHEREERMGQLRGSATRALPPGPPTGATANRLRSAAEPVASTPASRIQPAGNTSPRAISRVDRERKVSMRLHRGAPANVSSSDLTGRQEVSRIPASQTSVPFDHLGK
# T2 sequence (P48730 whole entry): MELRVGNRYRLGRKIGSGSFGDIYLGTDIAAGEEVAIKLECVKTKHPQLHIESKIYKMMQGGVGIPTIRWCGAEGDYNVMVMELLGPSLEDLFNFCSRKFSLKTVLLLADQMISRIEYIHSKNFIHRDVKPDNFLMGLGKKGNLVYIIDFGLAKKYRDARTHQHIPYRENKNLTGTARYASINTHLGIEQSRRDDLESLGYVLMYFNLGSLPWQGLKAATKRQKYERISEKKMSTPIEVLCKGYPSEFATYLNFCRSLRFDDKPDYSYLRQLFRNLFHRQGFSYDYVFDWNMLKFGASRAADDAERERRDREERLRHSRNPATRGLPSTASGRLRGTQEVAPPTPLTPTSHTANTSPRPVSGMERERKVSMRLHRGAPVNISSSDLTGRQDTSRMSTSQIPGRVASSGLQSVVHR
SMILES,IC50 [1],CE Delta (t + 1 h) [2],IC50 (human CK1 delta),melting point
"CC1(C)CN(c2ccc3nc(C4CC4)c(-c4ccnc(F)c4)n3n2)CCN1 [Compound 53, 2-Cyclopropyl-6-(3,3-dimethylpiperazin-1-yl)-3-(2-fluoropyridin-4-yl)imidazo[1,2-b]pyridazine]",292 nM,319 nM,–,–
"Cc1nc2ccc(N3C[C@@H](C)N[C@@H](C)C3)nn2c1-c1ccncc1 [Compound 54, 6-(cis-3,5-Dimethylpiperazin-1-yl)-2-methyl-3-pyridin-4-ylimidazo[1,2-b]pyridazine]",–,–,< 1 nM,–
"Cc1nc2ccc(N3CC4CNCC4C3)nn2c1-c1ccncc1 (centres unmarked) [Compound 66, 6-Hexahydropyrrolo[3,4-c]pyrrol-2(1H)-yl-2-methyl-3-pyridin-4-ylimidazo[1,2-b]pyridazine]",13 nM,633 nM,–,153 to 155 °C
"Cc1nc2ccc(N3CCC4(CCCNC4)CC3)nn2c1-c1ccncc1 [Compound 78, 9-(2-Methyl-3-pyridin-4-yl-imidazo[1,2-b]pyridazin-6-yl)-2,9-diazaspiro[5.5]undecane]",78 nM,515 nM,–,–
